In brackets after ≈: the same amount, converted by molar mass. Activity calls are given as the source filed them. The rule behind the calls is not given here.
Assays:
[1] = target: T1, Growth hormone secretagogue receptor type 1 (Homo sapiens, UniProt Q92847); experiment: Agonist activity at GSHR by FLIPR assay; assay type: functional
[2] = target: T1, Growth hormone secretagogue receptor type 1; experiment: Intrinsic activity at GSHR relative to human ghrelin; assay type: functional
[3] = target: 5-hydroxytryptamine receptor 1B (Homo sapiens, UniProt P28222); experiment: Binding affinity at 5HT1B receptor
5-hydroxytryptamine receptor 1B, sequence (P28222 whole entry): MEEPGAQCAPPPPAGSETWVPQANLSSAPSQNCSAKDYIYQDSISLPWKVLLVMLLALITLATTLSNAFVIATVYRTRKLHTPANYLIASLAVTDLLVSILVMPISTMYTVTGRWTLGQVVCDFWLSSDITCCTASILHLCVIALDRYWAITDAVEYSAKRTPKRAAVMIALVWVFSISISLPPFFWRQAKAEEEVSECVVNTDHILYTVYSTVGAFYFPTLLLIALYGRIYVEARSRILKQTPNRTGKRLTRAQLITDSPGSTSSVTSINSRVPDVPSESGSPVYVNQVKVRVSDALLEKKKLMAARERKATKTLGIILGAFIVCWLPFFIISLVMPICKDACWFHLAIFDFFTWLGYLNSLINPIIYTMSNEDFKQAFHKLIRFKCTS

[4] = target: Motilin receptor (Homo sapiens) (UniProt O43193); experiment: Activity at motilin GPR38 receptor
Motilin receptor (Homo sapiens), sequence (O43193 whole entry): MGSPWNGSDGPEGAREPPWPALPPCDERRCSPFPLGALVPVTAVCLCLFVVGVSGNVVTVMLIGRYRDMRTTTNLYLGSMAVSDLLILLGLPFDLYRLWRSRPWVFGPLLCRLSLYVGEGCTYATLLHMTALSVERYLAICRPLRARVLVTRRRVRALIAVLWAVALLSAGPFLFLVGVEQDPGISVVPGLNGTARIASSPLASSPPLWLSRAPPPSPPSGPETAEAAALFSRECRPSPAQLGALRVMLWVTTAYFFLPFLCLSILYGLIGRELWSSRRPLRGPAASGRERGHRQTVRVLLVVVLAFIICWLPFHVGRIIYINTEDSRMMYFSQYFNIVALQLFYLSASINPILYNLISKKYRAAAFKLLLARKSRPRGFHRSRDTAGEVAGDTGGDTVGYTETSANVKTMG

[5] = Aqueous solubility at pH 7.4; assay type: physicochemical
[6] = Cmax in rat at 1 mg/kg, iv; assay type: ADME, organism-based; design: dose 1 mg/kg, route intravenous; conditions: in vivo
[7] = Volume of distribution in rat at 1 mg/kg, iv; assay type: ADME, organism-based; design: dose 1 mg/kg, route intravenous; conditions: in vivo, read-out: Vdss
Liver microsomes [8] = experiment: Metabolic stability in rat liver microsomes; assay type: ADME, Microsome
Liver microsomes [9] = experiment: Metabolic stability in human liver microsomes; assay type: ADME, Microsome
Rattus norvegicus = experiment: Increase in gastric emptying in sc dosed rat; assay type: functional; conditions: Stomach
[10] = Clearance in rat blood at 1 mg/kg, iv; assay type: ADME, organism-based; design: dose 1 mg/kg, route intravenous; conditions: in vivo
[11] = Distribution coefficient, log D at pH 7.4; assay type: physicochemical; conditions: octanol/water
[12] = Half life in rat at 1 mg/kg, iv; assay type: ADME, organism-based; design: dose 1 mg/kg, route intravenous; conditions: in vivo

T1 sequence (Q92847 whole entry): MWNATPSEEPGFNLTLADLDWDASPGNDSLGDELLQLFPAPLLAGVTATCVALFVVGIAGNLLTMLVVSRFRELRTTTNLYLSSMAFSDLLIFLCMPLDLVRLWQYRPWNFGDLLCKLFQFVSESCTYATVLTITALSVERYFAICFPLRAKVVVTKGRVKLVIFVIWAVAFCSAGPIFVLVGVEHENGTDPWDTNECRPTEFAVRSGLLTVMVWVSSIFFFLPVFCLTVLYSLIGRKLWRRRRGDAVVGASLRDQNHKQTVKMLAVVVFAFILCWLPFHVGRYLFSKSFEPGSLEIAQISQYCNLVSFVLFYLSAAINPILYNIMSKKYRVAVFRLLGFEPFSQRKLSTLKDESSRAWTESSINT

SMILES | EC50 [1] [µM] | Intrinsic activity [2] | other results
COc1cc2c(cc1N1C[C@@H](C)N(C)[C@@H](C)C1)N(S(=O)(=O)c1ccc3ccccc3c1)CC2 | 0.0398 | 0.8 | 
CCOc1ccc(CC(=O)N2CCc3cc(OC)c(N4C[C@@H](C)N(C)[C@@H](C)C4)cc32)cc1Cl | 0.158 | 0.7 | Ki [3]: 0.0126 µM
COc1cc2c(cc1N1CCNCC1)N(S(=O)(=O)c1ccc(-c3ccccn3)s1)CC2 | 0.0631 | 0.8 | 
COc1cc2c(cc1N1C[C@@H](C)N[C@@H](C)C1)N(S(=O)(=O)CCc1ccccc1Cl)CC2 | 0.00501 | 0.9 | 
COc1cc2c(cc1N1C[C@@H](C)NC(C)(C)C1)N(S(=O)(=O)c1ccc(-c3ccccn3)s1)CC2 | 0.01 | 0.8 | 
COc1cc2c(cc1N1CCNC(C)(C)C1)N(S(=O)(=O)c1ccc(-c3ccccn3)s1)CC2 | 0.0158 | 0.9 | 
COc1cc2c(cc1N1C[C@@H](C)N(C)[C@@H](C)C1)N(S(=O)(=O)c1cccc(Br)c1)CC2 | 0.126 | 0.7 | Ki [3]: 2 µM
COc1cc2c(cc1N1CCN[C@H](C)C1)N(S(=O)(=O)c1ccc(-c3ccccn3)s1)CC2 | 0.00398 | 1 | 
COc1cc2c(cc1N1C[C@@H](C)N[C@@H](C)C1)N(S(=O)(=O)c1cccc(-c3ccccn3)c1)CC2 | 0.02 | 0.9 | 
COc1cc2c(cc1N1C[C@@H](C)N[C@@H](C)C1)N(S(=O)(=O)Cc1cccc(I)c1)CC2 | 0.0316 | 0.8 | 

These reach a lower EC50 [1]. Values come first.

EC50 [1] [µM] | Intrinsic activity [2] | SMILES | other results
0.00251 | 0.9 | COc1cc2c(cc1N1C[C@@H](C)N[C@@H](C)C1)N(S(=O)(=O)c1ccc(-c3ccon3)s1)CC2 | 
0.000158 | 0.9 | COc1cc2c(cc1N1C[C@@H](C)N[C@@H](C)C1)N(S(=O)(=O)c1ccc(-c3ccccn3)s1)CC2 | Activity [4]: inactive; solubility [5]: 0.168 mg/mL (≈ 347 µM); Cmax [6]: 0.25 µM; Vd [7]: 8.8 L/kg; Stability (Liver microsomes [8]): 2.6 mL/min/g; Stability (Liver microsomes [9]): 4.5 mL/min/g; ED50 (Rattus norvegicus): 0.1 mg/kg; Clearance blood [10]: 3.84 L/h/kg; logD [11]: 1.8; half-life [12]: 2.3 h
0.000794 | 1 | COc1cc2c(cc1N1C[C@H](C)NC(C)(C)C1)N(S(=O)(=O)c1ccc(-c3ccccn3)s1)CC2 | 
0.0002 | 1.1 | COc1cc2c(cc1N1C[C@@H](C)N[C@@H](C)C1)N(S(=O)(=O)c1ccc(-c3ccccn3)cc1)CC2 | 
0.00316 | 1 | COc1cc2c(cc1N1CCN[C@@H](C)C1)N(S(=O)(=O)c1ccc(-c3ccccn3)s1)CC2 | 
0.000501 | 1 | COc1cc2c(cc1N1C[C@@H](C)N[C@@H](C)C1)N(S(=O)(=O)c1ccc3ccccc3c1)CC2 | 
